{"source": "patent US20110236456A1", "about": "“IMPLANTABLE DEVICE FOR THE DELIVERY OF HISTRELIN AND METHODS OF USE THEREOF” (Endo Pharmaceuticals Solutions Inc., priority 2008, published 2011)", "key": {"[1]": {"experiment": "In vitro elution of histrelin from HP-60D-20 polyurethane implant (Example 1)", "format": "physicochemical", "details": "HP-60D-20 implant, approx. 37° C.", "experimental": "HP-60D-20 is extruded to tubes with thickness of 0.30 mm with inside diameter of 1.75 mm. The tubes are then cut into 25 mm in length. One side of the tube is sealed with heat using a heat sealer. The sealing time is less than one minute. Four pellets of histrelin acetate are loaded into the tube. Each pellet weighs approximately 13.5 mg for a total of 54 mg. Each pellet is comprised of a mixture of 98% histrelin and 2% stearic acid. The second end open of the tube is sealed with heat in the same way as for the first end. The loaded implant is then conditioned and primed. The conditioning takes place at room temperature in a 0.9% saline solution for one day. Upon completion of the conditioning, the implant undergoes priming. The priming takes place at room temperatures in a 1.8% saline solution for one day. Each implant is tested in vitro in a medium selected to mimic the pH found in the human body. The temperature of the selected medium was kept at approximately 37° C. during the testing. The release rates are shown on FIG. 4 and Table 2."}, "[2]": {"experiment": "Release rates of histrelin from Tecophilic, Tecoflex and Carbothane polyurethane implants (Example 3)", "format": "physicochemical", "details": "for Release rate normalized to surface area of the implant: 2% SA, 50 mg API", "from_the_text": "Tables 2A-C show release rates of histrelin from three different classes of polyurethane compounds (Tecophilic®, Tecoflex® and Carbothane®). The release rates have been normalized to surface area of the implant, thereby adjusting for slight differences in the size of the various implantable devices. Histrelin is very soluble in water. Typically, a Log P value of greater than about 2.0 is considered to be not readily soluble in aqueous solution. The polyurethanes were selected to have varying affinities for water soluble active agents and varying flexibility (as indicated by the variation in flex modulus). […] Polyurethanes are available or can be prepared, for example, with a range of EWCs or flex moduli (Table 2). Tables 2A-C show normalized release rates for various active ingredients from polyurethane compounds. Tables 2D-F show the non-normalized release rates for the same active ingredients, together with implant composition."}}}
{"compound": "CCNC(=O)[C@@H]1CCCN1C(=O)[C@H](CCCNC(=N)N)NC(=O)[C@H](CC(C)C)NC(=O)[C@@H](Cc1cn(Cc2ccccc2)cn1)NC(=O)[C@H](Cc1ccc(O)cc1)NC(=O)[C@H](CO)NC(=O)[C@H](Cc1c[nH]c2ccccc12)NC(=O)[C@H](Cc1cnc[nH]1)NC(=O)[C@@H]1CCC(=O)N1", "note": "[Histrelin Acetate, Histrelin acetate]", "values": [{"measurement": "Histrelin elution rate", "setting": "[1]; week 1 of elution", "result": 451.733, "unit": "µg/day"}, {"measurement": "Histrelin elution rate", "setting": "[1]; week 2 of elution", "result": 582.666, "unit": "µg/day"}, {"measurement": "Histrelin elution rate", "setting": "[1]; week 3 of elution", "result": 395.9, "unit": "µg/day"}, {"measurement": "Histrelin elution rate", "setting": "[1]; week 4 of elution", "result": 310.29, "unit": "µg/day"}, {"measurement": "Histrelin elution rate", "setting": "[1]; week 5 of elution", "result": 264.92, "unit": "µg/day"}, {"measurement": "Histrelin elution rate", "setting": "[1]; week 6 of elution", "result": 247.17, "unit": "µg/day"}, {"measurement": "Histrelin elution rate", "setting": "[1]; week 7 of elution", "result": 215.93, "unit": "µg/day"}, {"measurement": "Histrelin elution rate", "setting": "[1]; week 8 of elution", "result": 201.78, "unit": "µg/day"}, {"measurement": "Histrelin elution rate", "setting": "[1]; week 9 of elution", "result": 183.22, "unit": "µg/day"}, {"measurement": "Histrelin elution rate", "setting": "[1]; week 10 of elution", "result": 174.99, "unit": "µg/day"}, {"measurement": "Histrelin elution rate", "setting": "[1]; week 11 of elution", "result": 167.72, "unit": "µg/day"}, {"measurement": "Histrelin elution rate", "setting": "[1]; week 12 of elution", "result": 158.37, "unit": "µg/day"}, {"measurement": "Histrelin elution rate", "setting": "[1]; week 13 of elution", "result": 153.95, "unit": "µg/day"}, {"measurement": "Histrelin elution rate", "setting": "[1]; week 14 of elution", "result": 146.46, "unit": "µg/day"}, {"measurement": "Histrelin elution rate", "setting": "[1]; week 15 of elution", "result": 139.83, "unit": "µg/day"}, {"measurement": "Histrelin elution rate", "setting": "[1]; week 16 of elution", "result": 129.6, "unit": "µg/day"}, {"measurement": "Histrelin elution rate", "setting": "[1]; week 17 of elution", "result": 124.46, "unit": "µg/day"}, {"measurement": "Histrelin elution rate", "setting": "[1]; week 18 of elution", "result": 118.12, "unit": "µg/day"}, {"measurement": "Histrelin elution rate", "setting": "[1]; week 19 of elution", "result": 120.35, "unit": "µg/day"}, {"measurement": "Release rate normalized to surface area of the implant", "setting": "[2]; Carbothane PC-3595A, F.M.: 4,500", "result": 0.2, "unit": "μg/day/cm^2"}, {"measurement": "Non-normalized release rate", "setting": "[2]; Carbothane PC-3595A, F.M.: 4,500, ID 1.85 mm, wall 0.20 mm, L 25.25 mm, 1.625 cm^2", "result": 0.4, "unit": "µg/day"}, {"measurement": "Release rate normalized to surface area of the implant", "setting": "[2]; Tecoflex EG 100A, F.M.: 10,000", "result": 0.3, "unit": "μg/day/cm^2"}, {"measurement": "Non-normalized release rate", "setting": "[2]; Tecoflex EG 100A, F.M.: 10,000, ID 1.85 mm, wall 0.20 mm, L 25.56 mm, 1.645 cm^2", "result": 0.5, "unit": "µg/day"}, {"measurement": "Release rate normalized to surface area of the implant", "setting": "[2]; Tecophilic HP-60D-20, 15% EWC", "result": 93, "unit": "μg/day/cm^2"}, {"measurement": "Non-normalized release rate", "setting": "[2]; Tecophilic HP-60D-20, 15% EWC, ID 1.80 mm, wall 0.30 mm, L 24.5 mm, 1.616 cm^2", "result": 150, "unit": "µg/day"}, {"measurement": "Release rate normalized to surface area of the implant", "setting": "[2]; Tecophilic HP-60D-35, 24% EWC", "result": 248, "unit": "μg/day/cm^2"}, {"measurement": "Non-normalized release rate", "setting": "[2]; Tecophilic HP-60D-35, 24% EWC, ID 1.80 mm, wall 0.30 mm, L 24.5 mm, 1.616 cm^2", "result": 400, "unit": "µg/day"}, {"measurement": "Release rate normalized to surface area of the implant", "setting": "[2]; Tecophilic HP-60D-60, 31% EWC", "result": 309, "unit": "μg/day/cm^2"}, {"measurement": "Non-normalized release rate", "setting": "[2]; Tecophilic HP-60D-60, 31% EWC, ID 1.80 mm, wall 0.30 mm, L 24.5 mm, 1.616 cm^2", "result": 500, "unit": "µg/day"}]}
